pIC50: −log10 of the molar value.
Assay: In vitro inhibitory activity against H1N9 Influenza A Neuraminidase.

CC(=O)N[C@@H]1[C@@H]([C@H](O)[C@H](O)CO)O[C@](O)(C(=O)O)C[C@H]1O [(2S,4R,5S,6S)-5-Acetylamino-2,4-dihydroxy-6-((1R,2R)-1,2,3-trihydroxy-propyl)-tetrahydro-pyran-2-carboxylic acid]
pIC50: 5.00

NC(N)=Nc1cc(C(=O)O)ccc1N1C(=O)CCC1(CO)CO [4-(2,2-Bis-hydroxymethyl-5-oxo-pyrrolidin-1-yl)-3-guanidino-benzoic acid]
pIC50: 5.30

NCC1CCC(=O)N1c1ccc(C(=O)O)cc1N=C(N)N (stereo unspecified) [4-(2-Aminomethyl-5-oxo-pyrrolidin-1-yl)-3-guanidino-benzoic acid]
pIC50: 2.59

CCC(CC)Nc1cc(C(=O)O)ccc1N1CCCC1=O [3-(1-Ethyl-propylamino)-4-(2-oxo-pyrrolidin-1-yl)-benzoic acid]
pIC50: 3.65

CCC(CC)Nc1cc(C(=O)O)ccc1N1C(=O)CCC1(CO)CO [4-[2,2-bis(hydroxymethyl)-5-oxopyrrolidin-1-yl]-3-[(1-ethylpropyl)amino]benzoic acid]
pIC50: 7.32

O=C(O)c1ccc(N2C(=O)CCC2(CO)CO)cc1 [4-(2,2-Bis-hydroxymethyl-5-oxo-pyrrolidin-1-yl)-benzoic acid anion]
pIC50: 3.12

— BindingDB's records for doi:10.1021/jm980707k (University of Alabama At Birmingham, 1999)
